We go through 7 compounds from ChEMBL document CHEMBL3045842, “Antioxidant and -glucosidase inhibitory compounds from Pimpinella candolleana Wight et Arn” (Med Chem Res, 2012).

The structures appear in SMILES notation. ≈ marks a conversion by molar mass, not a printed value.

In experiment [1] the target is Lysosomal alpha-glucosidase (Homo sapiens) (UniProt P10253). Put plainly: Inhibition of alpha-glucosidase (unknown origin) using para-nitrophenyl-alpha-D-glucopyranoside as substrate incubated at 50 to 300 ug/ml for 15 min prior to substrate addition measured after 15 min by spectrophotometric analysis.
Experiment [2] has as its system Radical scavenging activity. Put plainly: Antioxidant activity assessed as as DPPH radical scavenging activity after 30 min by spectrophotometry. In kind it is functional. (In general: The DPPH test is a chemical assay of radical scavenging.)
The nature of experiment [3]: Antioxidant activity assessed as trolox equivalents of ferric reducing activity after 30 min by spectrophotometry. In kind it is functional.
Experiment [4] in a line: Antioxidant activity assessed as ABTS radical scavenging activity after 10 min by spectrophotometry. In kind it is functional.

What is called inhibition is the relative decrease from the control value, in per cent. Low values mean a response near the control, high ones a response far below the control. `C[C@H]1O[C@H](O[C@H]2[C@H](O)[C@@H](O)[C@@H](O[C@H]3[C@H](O)[C@@H](O)C(O)O[C@@H]3CO)O[C@@H]2CO)[C@H](O)[C@@H](O)[C@@H]1N[C@H]1C=C(CO)[C@@H](O)[C@H](O)[C@H]1O` (stereo not given in full) showed an inhibition in experiment [1] of 55.6%.
For orientation: IC50 means the concentration at which inhibition is half-maximal. `O=c1cc(-c2ccc(O)c(O)c2)oc2cc(O)cc(O)c12` [LUTEOLIN]: in experiment [2], the IC50 was found to be 0.99 µg/mL (≈ 3.46 µM). The same compound came in with an inhibition in experiment [1] of 99.9%.
In experiment [1], `CC[C@H](/C=C/[C@@H](C)[C@H]1CC[C@H]2[C@@H]3CC=C4CC(OC(C)=O)CC[C@]4(C)[C@H]3CC[C@]12C)C(C)C` (stereo not given in full) had an inhibition of 99.1%.
Regarding `Cc1cc(C(C)(C)C)c(O)c(C(C)(C)C)c1` [BUTYLATED HYDROXYTOLUENE], the Activity in experiment [3] turned out to be 1580 µmol/g. Further, the IC50 in experiment [2] was found to be 18.71 µg/mL (≈ 84.9 µM); in experiment [4], 6.64 µg/mL (≈ 30.1 µM).
For `CCCOC(=O)c1cc(O)c(O)c(O)c1` [PROPYL GALLATE], in experiment [2], the IC50 worked out at 3.96 µg/mL (≈ 18.7 µM).
In experiment [1], `C[C@H]1[C@H](C)CC[C@]2(C(=O)O)CC[C@]3(C)C(=CC[C@@H]4[C@@]5(C)CC[C@H](O)C(C)(C)[C@@H]5CC[C@]43C)[C@H]12` returned an inhibition of 97.6%.
In the case of `O=c1cc(-c2ccc(O)cc2)oc2cc(O)c([C@@H]3O[C@H](CO)[C@@H](O)[C@H](O)[C@H]3O)c(O)c12`, in experiment [1], the inhibition amounted to 76.8%.
